19 molecules from US8222416B2, “Azaindole glucokinase activators” (Hoffmann-La Roche Inc., priority 2009, dated 2012) can be followed below.

For assay [1], the system named is C57BL/6J mice. Nature of the assay: Glucokinase activator in vivo screen, blood glucose after oral gavage in lean and diet induced obese mice. The settings on record: Mus musculus, C57B6 mice, read-out: % gluc lowering @ 2 H; for change in vivo at 25 mg/kg: vs control at 2 hours post 25 mg/kg oral dose; for change in vivo at 50 mg/kg: vs control at 2 hours post 50 mg/kg oral dose. The protocol:
Glucokinase Activator in vivo Screen Protocol in Lean and Diet Induced Obese Mice: Lean or Diet-Induced Obese (DIO) C57BL/6J mice were orally dosed via gavage with Glucokinase (GK) activator following a two hour fasting period. Blood glucose determinations were made at various (e.g. 0, 1, 2, 4 and 8 hours post-oral gavage) times during the study.
C57Bl/6J mice were obtained from Jackson Laboratory (Bar Harbor, Me.) and were maintained in a light-dark cycle with lights on from 0600-1800 hr. For studies in lean mice, the mice were received at age ten weeks and given ad libitum access to control diet (LabDiet 5001 chow, PMI Nutrition, Brentwood, Mo.), and were at least age 11 weeks at the time of study. For studies in the DIO model, the mice were received at age five weeks and given ad libitum access to Bio-Sery F3282 High Fat Diet (Frenchtown, N.J.), and were at least age 16 weeks at the time of study. The experiments were conducted during the light phase of the light-dark cycle. Mice (n=6) are weighed and fasted for a two hour period prior to oral treatment. GK activators are formulated in Gelucire vehicle (Ethanol:Gelucire44/14:PEG400q.s. 4:66:30 v/w/v. For studies in lean mice, the mice were dosed orally with 5.04 per gram of body weight (i.e. 5 ml/kg×10.0 mg/ml formulation to equal a 50 mg/kg dose). For studies in DIO mice, the mice were dosed orally with 5.04 per gram of body weight (i.e. 5.0 ml/kg×5 mg/ml formulation to equal a 25 mg/kg dose). Immediately prior to dosing, a pre-dose (time zero) blood glucose reading was acquired by snipping off a small portion of the animal's tail and collecting […] blood into a heparinized capillary tube for analysis. Following GK activator administration, additional blood glucose readings were taken at various time points post dose from the same tail wound. Results were interpreted by comparing the mean blood glucose values of vehicle treated mice with GK activator treated mice over the study period.
The Table below provides data for % glucose lowering of a representative number of compounds of the present invention vs control at 2 hours post 25 or 50 mg/kg dose in C57B6 mice: […]

Assay [2] deals with T1, Recombinant human liver GK1 (GST-GK) (Homo sapiens, UniProt P35557).
T1 construct: made in house; host or cells: E. coli
T1 sequence (P35557 1-466 isoform P35557-2): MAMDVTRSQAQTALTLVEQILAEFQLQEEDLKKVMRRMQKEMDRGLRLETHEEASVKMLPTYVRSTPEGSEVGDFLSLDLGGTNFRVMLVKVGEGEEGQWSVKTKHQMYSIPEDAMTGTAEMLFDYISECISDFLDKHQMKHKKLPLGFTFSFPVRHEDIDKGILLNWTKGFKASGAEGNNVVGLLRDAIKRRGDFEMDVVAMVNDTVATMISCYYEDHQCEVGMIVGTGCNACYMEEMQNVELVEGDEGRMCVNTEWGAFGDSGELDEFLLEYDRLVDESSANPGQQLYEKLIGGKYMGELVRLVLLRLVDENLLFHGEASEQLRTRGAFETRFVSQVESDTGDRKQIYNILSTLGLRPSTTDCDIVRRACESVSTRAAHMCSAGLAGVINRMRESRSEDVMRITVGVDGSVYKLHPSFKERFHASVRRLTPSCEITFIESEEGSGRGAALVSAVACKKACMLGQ
Nature of the assay: In vitro glucokinase activity assay (G6PDH-coupled, NADH, OD340). Format: biochemical. The settings on record: concentration of activator that produced a 50% increase in the activity of GK; 5 mM D-glucose, 30° C. The gist of the method:
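GST-fused human liver GK1 from E. coli, run at 30° C. in pH 7.1 HEPES with 5 mM glucose, 1 mM ATP and 10% DMSO, coupled via G6PDH to NADH. OD340 rate measured after enzyme start; SC1.5 is the activator concentration raising activity 50% over DMSO control.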

Turning to `COCCOc1cnc2[nH]c([C@H](CC3CCCC3)c3ccc(S(C)(=O)=O)cc3)cc2c1` (single isomer, unassigned) [Example 16], in assay [1], the change in vivo at 25 mg/kg is -31.3%. Also, the SC1.5 in assay [2] is 0.21 µM.

On to `CC(C)Oc1cnc2[nH]c([C@H](CC3CCCC3)c3ccc(S(C)(=O)=O)cc3)cc2c1` (single isomer, unassigned) [Example 19], for which the change in vivo at 25 mg/kg in assay [1] was -14.8%. Besides, in assay [2], the SC1.5 was 0.414 µM.

Take `COc1cnc2[nH]c(C(CC3CCCO3)c3ccc(S(C)(=O)=O)cc3)cc2c1` (single isomer, unassigned) [Example 22, 2-[1-(4-Methanesulfonyl-phenyl)-2-(tetrahydro-furan-2-yl)-ethyl]-5-methoxy-1H-pyrrolo[2,3-b]pyridine]: in assay [1], the change in vivo at 25 mg/kg is -6.3%. In assay [2], the SC1.5 was 2.5 µM.

For `COc1cnc2[nH]c([C@H](CC3CCOCC3)c3ccc(S(C)(=O)=O)cc3)cc2c1` (single isomer, unassigned) [Example 32], the change in vivo at 25 mg/kg in assay [1] is -23.4%. In addition, in assay [2], the SC1.5 came to 1.1 µM.

Turning to `COc1cnc2[nH]c([C@H](CC3CCOCC3)c3ccc(C(F)(F)F)cc3)cc2c1` (single isomer, unassigned) [Example 34], in assay [1], the change in vivo at 25 mg/kg was -10.7%. Also, the SC1.5 in assay [2] is 0.958 µM.

Consider `COCc1cnc2[nH]c([C@H](CC3CCCC3)c3ccc(S(C)(=O)=O)cc3)cc2c1` (single isomer, unassigned) [Example 42], for which the change in vivo at 25 mg/kg in assay [1] is -10.3%. For the same molecule, the SC1.5 in assay [2] was 0.903 µM.

Turning to `CS(=O)(=O)c1ccc(C(CC2CCCCO2)c2cc3cccnc3[nH]2)cc1` (single isomer, unassigned) [Example 60, 2-[1-(4-Methanesulfonyl-phenyl)-2-(tetrahydro-pyran-2-yl)-ethyl-]-1H-pyrrolo[2,3-b]pyridine], the change in vivo at 25 mg/kg in assay [1] was -29.9%. In assay [2], the SC1.5 was 0.451 µM.

As for `CS(=O)(=O)c1ccc([C@@H](CC2CCOCC2)c2cc3cccnc3[nH]2)cc1` (single isomer, unassigned) [Example 67], in assay [1], the change in vivo at 25 mg/kg is -43.6%. Also, the SC1.5 in assay [2] stood at 0.505 µM.

As to `CC(C)(O)c1ccc([C@@H](CC2CCCC2)c2cc3cccnc3[nH]2)cc1` (single isomer, unassigned) [Example 82], the change in vivo at 25 mg/kg in assay [1] is -42.7%. The SC1.5 in assay [2] was 0.647 µM.

Regarding `CS(=O)(=O)c1ccc([C@@H](CC2CCCC2)c2cc3cc(F)cnc3[nH]2)cc1` (single isomer, unassigned) [Example 118], the change in vivo at 25 mg/kg in assay [1] was -48.4%. Also, the SC1.5 in assay [2] was found to be 0.05 µM.

Turning to `CC(C)(O)c1ccc([C@@H](CC2CCCC2)c2cc3cc(F)cnc3[nH]2)cc1` (single isomer, unassigned) [Example 120], the change in vivo at 25 mg/kg in assay [1] was -52%. Further, the SC1.5 in assay [2] was 0.241 µM.

Take `CS(=O)(=O)c1ccc([C@@H](CC2CCOCC2)c2cc3cc(F)cnc3[nH]2)cc1` (single isomer, unassigned) [Example 124]: the change in vivo at 25 mg/kg in assay [1] is -35%. The SC1.5 in assay [2] was 0.21 µM.

On to `CC(C)NC(=O)c1cnc2[nH]c(C(CC3CCCC3)c3ccc(S(C)(=O)=O)cc3)cc2c1` (centres unmarked) [Example 3, 2-[2-Cyclopentyl-1-(4-methanesulfonyl-phenyl)-ethyl]-1H-pyrrolo[2,3-b]pyridin-5-carboxylic acid isopropylamide], for which the change in vivo at 50 mg/kg in assay [1] was -5.6%. Also, the SC1.5 in assay [2] is 1.9 µM.

Take `CC(C)S(=O)(=O)c1ccc(C(CC2CCCC2)c2cc3cccnc3[nH]2)cc1` (centres unmarked) [Example 69]: in assay [1], the change in vivo at 50 mg/kg was -40.3%. The SC1.5 in assay [2] was found to be 0.387 µM.

In the case of `CC(C)(O)c1ccc(C(CC2CCCC2)c2cc3cccnc3[nH]2)cc1F` (centres unmarked) [Example 95, 2-{4-[2-Cyclopentyl-1-(1H-pyrrolo[2,3-b]pyridin-2-yl)-ethyl]-2-fluoro-phenyl}-propan-2-ol], the change in vivo at 50 mg/kg in assay [1] was -49.4%. In addition, in assay [2], the SC1.5 stood at 0.379 µM.

As to `CS(=O)(=O)c1ccc(C(CC2CCCC2)c2cc3cccnc3[nH]2)cn1` (centres unmarked) [Example 109, 2-[2-Cyclopentyl-1-(6-methanesulfonyl-pyridin-3-yl)-ethyl]-1H-pyrrolo[2,3-b]pyridine], the change in vivo at 50 mg/kg in assay [1] was -31.6%. In assay [2], the SC1.5 was found to be 2.1 µM.

With `CS(=O)(=O)c1ccc(/C(=C\C2CCOCC2)c2cc3cc(F)cnc3[nH]2)cc1` [Example 122, 5-Fluoro-2-[(E)-1-(4-methanesulfonyl-phenyl)-2-(tetrahydro-pyran-4-yl)-vinyl]-1H-pyrrolo[2,3-b]pyridine], the change in vivo at 25 mg/kg in assay [1] was -59.4%. The SC1.5 in assay [2] was found to be 0.051 µM.

With `CS(=O)(=O)c1ccc(C(CC2CCCC2)c2cc3cccnc3[nH]2)cc1` (centres unmarked) [Example 138, 2-[2-Cyclopentyl-1-(4-methanesulfonyl-phenyl)-ethyl]-1H-pyrrolo[2,3-b]pyridine], the change in vivo at 50 mg/kg in assay [1] is -50.4%. Moreover, the SC1.5 in assay [2] worked out at 0.236 µM.

Turning to `Clc1ccc(C(CC2CCCC2)c2cc3cccnc3[nH]2)cc1Cl` (centres unmarked) [Example 139, 2-[2-Cyclopentyl-1-(3,4-dichloro-phenyl)-ethyl]-1H-pyrrolo[2,3-b]pyridine], the change in vivo at 50 mg/kg in assay [1] stood at 25.4%. Besides, the SC1.5 in assay [2] is 1.1 µM.
